Results from paper PMC4474874, “Effect of JAK Inhibitors on Release of CXCL9, CXCL10 and CXCL11 from Human Airway Epithelial Cells” (PLoS ONE, 2015).
Like-named read-outs stand apart in the source and are kept apart here.

Key:
[1] = test system: human primary airway epithelial cells; test: IL-6 release from IFNγ + TNFα-stimulated human primary airway epithelial cells; assay type: cell-based; conditions: IFNγ + TNFα, n = 7
Description: In order to determine whether any of the inhibitory effects of the JAK inhibitors could be attributed to cell death, MTT assays were performed at the end of every experiment. […] In order to address this issue, the levels of IL-6 released from cells stimulated with IFNγ + TNFα were measured.

[2] = test system: human primary airway epithelial cells; test: Release of CXCL9, CXCL10 and CXCL11 from human primary airway epithelial cells (ELISA); assay type: cell-based; conditions: pre-treated 1h; for IC50: pooled primary cells
Description: BEAS-2B cells (catalogue number CRL-9609) were purchased directly from American Type Culture Collection (Rockville, MD). Keratinocyte serum-free medium (K-SFM), bovine pituitary extract (BPE), and recombinant human epidermal growth factor (EGF) were purchased from Invitrogen (Paisley, UK). BEAS-2B cells were cultured in K-SFM containing 50 μg/ml BPE and 5 ng/ml EGF at 37°C in a humidified atmosphere comprising 5% (v/v) CO2 in air. Cells were cultured as monolayers in growth factor-free media for 24 h prior to stimulation. Human primary airway epithelial cells were cultured as monolayers from bronchial brushings from both male and female subjects (Table 1) and cultured in LHC-9 media (Invitrogen, Paisley, UK) in collagen (1% w/v) coated flasks. Samples were obtained from non-smokers, smokers and patients with COPD. […] The subjects were matched for age and smokers and COPD patients for smoking history (Table 1). All subjects gave informed written consent and the study was approved by the NRES London-Chelsea Research Ethics committee, study number 09/H0801/85.
(§1) Cell-free supernatants were removed 20h post-stimulation and assayed for CXCL9, CXCL10 and CXCL11 using Duoset ELISA kits (R & D Systems Europe, Abingdon, UK) according to the manufacturer’s instructions. The detection limits of these assays are 62pg/ml, 31pg/ml, and 7.8 pg/ml respectively.
Data are presented as mean ± SEM of ‘n’ independent determinations. Concentration-response curves were analysed by least-squares, non-linear iterative regression with the ‘Graphpad Prism’ curve fitting program (GraphPad software, San Diego, USA) and IC50 values were subsequently interpolated from curves of best-fit. Statistical differences were determined using the Kruskal–Wallis test followed by Dunn's multiple comparison test or a Wilcoxon signed rank test as appropriate. Values of P<0.05 were considered significant.
Media was harvested and the concentrations of CXCL9 (panels a and d), CXCL10 (panels b and e) and CXCL11 (panels c and f) were measured by ELISA. Data are presented as mean ± SEM, n = 10–13.

BEAS-2B cells = test: Release of CXCL9, CXCL10 and CXCL11 from BEAS-2B cells (ELISA), inhibitors added concomitantly with stimulus; assay type: cell-based, human
Description: as §1
It was possible that concomitant addition of stimulus and JAK inhibitors may elicit a different inhibitory profile, therefore to address this, experiments were performed. […] Experiments were then performed to determine the effects of both JAK inhibitors in human primary airway epithelial cells in order to determine whether their ability to suppress CXCR3 chemokine release from BEAS-2B cells was reflective of their efficacy in primary cells.
Media was harvested and the concentrations of CXCL9 (panels a and d), CXCL10 (panels b and e) and CXCL11 (panels c and f) were measured by ELISA. Data are presented as mean±SEM, n = 7–8. (EPS) Click here for additional data file. […]
After this time, media was harvested and the concentrations of CXCR3 chemokines measured by ELISA. Data are presented as mean±SEM, n=4

STAT-3 = STAT-3 DNA binding in BEAS-2B cells (TransAM); assay type: cell-based, human; conditions: IFNγ + TNFα, inhibitor 10^-6M
Description: STAT phosphorylation, nuclear translocation and DNA binding was determined using TransAM assays (Actif Motif, Rixensart, Belgium). Cells were treated with JAK inhibitors for 30 min prior to stimulation for 1h. Nuclear extracts were prepared using the Actif Motif assay reagents. Briefly, the nuclear extracts (10 μg) were incubated in DNA coated plates for 1h. After washing, antibodies supplied with the TransAM kit that were specific for the active forms of STAT1, STAT3, STAT5A and STAT5B were added to the wells and incubated for a further hour. The plates were washed and a secondary HRP-labelled anti-goat Ig antibody was added and the plates incubated for an hour. After washing, the assay was developed using the TMB substrate provided and the reaction stopped using 2N sulphuric acid. The plates were read at 450nm with a reference filter of 610nm. Data were then normalised to non-stimulated cells and calculated as fold change from baseline.
After 1 h, nuclear extracts of the cells were prepared and TransAM assays for STAT-1 (panel a) and STAT-3 (panel b) were performed. Data are presented as fold change from baseline ± SEM; n = 4.

## C[C@@H]1CCN(C(=O)N2CCCC2)C[C@@H]1N(C)c1ncnc2[nH]ccc12 [PF956980]
[1]
  IC50: 11400 ± 9000 nM
[2]; IFNγ (10ng/ml) 20h, read-out: IC50, release of CXCL9
  IC50: 680 ± 120 nM
[2]; IFNγ (10ng/ml) 20h, read-out: IC50, release of CXCL10
  IC50: 960 ± 190 nM
[2]; IFNγ (10ng/ml) 20h, read-out: IC50, release of CXCL11
  IC50: 760 ± 120 nM
[2]; IFNγ+TNFα (10ng/ml) 20h, read-out: IC50, release of CXCL9
  IC50: 520 ± 170 nM
[2]; IFNγ+TNFα (10ng/ml) 20h, read-out: IC50, release of CXCL10
  IC50: 2120 ± 240 nM
[2]; IFNγ+TNFα (10ng/ml) 20h, read-out: IC50, release of CXCL11
  IC50: 1580 ± 330 nM
[2]; primary cells from COPD patients, IFNγ (10 ng/ml) 20h, read-out: EC50, release of CXCL9
  EC50: 630 ± 90 nM
[2]; primary cells from COPD patients, IFNγ (10 ng/ml) 20h, read-out: EC50, release of CXCL10
  EC50: 530 ± 10 nM
[2]; primary cells from COPD patients, IFNγ (10 ng/ml) 20h, read-out: EC50, release of CXCL11
  EC50: 820 ± 250 nM
[2]; primary cells from COPD patients, IFNγ +TNFα (10 ng/ml) 20h, read-out: EC50, release of CXCL9
  EC50: 590 ± 380 nM
[2]; primary cells from COPD patients, IFNγ +TNFα (10 ng/ml) 20h, read-out: EC50, release of CXCL10
  EC50: 1840 ± 400 nM
[2]; primary cells from COPD patients, IFNγ +TNFα (10 ng/ml) 20h, read-out: EC50, release of CXCL11
  EC50: 1920 ± 670 nM
[2]; primary cells from non-smokers, IFNγ (10 ng/ml) 20h, read-out: EC50, release of CXCL9
  EC50: 880 ± 390 nM
[2]; primary cells from non-smokers, IFNγ (10 ng/ml) 20h, read-out: EC50, release of CXCL10
  EC50: 810 ± 150 nM
[2]; primary cells from non-smokers, IFNγ (10 ng/ml) 20h, read-out: EC50, release of CXCL11
  EC50: 660 ± 240 nM
[2]; primary cells from non-smokers, IFNγ +TNFα (10 ng/ml) 20h, read-out: EC50, release of CXCL9
  EC50: 610 ± 260 nM
[2]; primary cells from non-smokers, IFNγ +TNFα (10 ng/ml) 20h, read-out: EC50, release of CXCL10
  EC50: 2720 ± 360 nM
[2]; primary cells from non-smokers, IFNγ +TNFα (10 ng/ml) 20h, read-out: EC50, release of CXCL11
  EC50: 1850 ± 670 nM
[2]; primary cells from smokers, IFNγ (10 ng/ml) 20h, read-out: EC50, release of CXCL9
  EC50: 550 ± 90 nM
[2]; primary cells from smokers, IFNγ (10 ng/ml) 20h, read-out: EC50, release of CXCL10
  EC50: 1280 ± 360 nM
[2]; primary cells from smokers, IFNγ (10 ng/ml) 20h, read-out: EC50, release of CXCL11
  EC50: 780 ± 160 nM
[2]; primary cells from smokers, IFNγ +TNFα (10 ng/ml) 20h, read-out: EC50, release of CXCL9
  EC50: 350 ± 260 nM
[2]; primary cells from smokers, IFNγ +TNFα (10 ng/ml) 20h, read-out: EC50, release of CXCL10
  EC50: 1880 ± 410 nM
[2]; primary cells from smokers, IFNγ +TNFα (10 ng/ml) 20h, read-out: EC50, release of CXCL11
  EC50: 870 ± 130 nM
BEAS-2B cells; inhibitor concomitant with IFNγ (10 ng/ml) 20h, read-out: IC50, release of CXCL9
  IC50: 300 ± 100 nM
BEAS-2B cells; inhibitor concomitant with IFNγ (10 ng/ml) 20h, read-out: IC50, release of CXCL10
  IC50: 1100 ± 400 nM
BEAS-2B cells; inhibitor concomitant with IFNγ (10 ng/ml) 20h, read-out: IC50, release of CXCL11
  IC50: 1100 ± 300 nM
BEAS-2B cells; inhibitor concomitant with IFNγ+TNFα (10 ng/ml) 20h, read-out: IC50, release of CXCL9
  IC50: 1000 ± 300 nM
BEAS-2B cells; inhibitor concomitant with IFNγ+TNFα (10 ng/ml) 20h, read-out: IC50, release of CXCL10
  IC50: 4000 ± 1300 nM
STAT-3
  effect on STAT-3 binding to DNA: suppressed
